Patent US6812214B2, “Use of harpagid-related compounds for prevention and treatment of osteoporosis, arthritis and ruptured disc and pharmaceutical composition containing the same” (priority 2000, dated 2004)
“Also recorded” adds a separate entry of the source.

Experiments:
COX-II [1] = experiment: Inhibition of COX-II expression at the level of transcription through RT-PCR; assay type: cell-based
Procedure: In order to identify the ingredient having an inhibitory activity against COX-II and inducible nitric oxide synthetase (iNOS) as the causal factors of rheumatoid arthritis in the extract used as the effective component of the pharmaceutical composition according to the present invention as in Experiment 6 above, the cells were distributed in T75 flask at the concentration of 10^5 cells, incubated for 7 days and then stimulated for 2 hours by introducing LPS in the flask at the concentration of 50 ng/ml. Then, the extract of the present invention was added so as to make the final concentration of 50 μg/ml. The cells were harvested into a 1.5 ml Eppendorf tube and centrifuged with 15,000 rpm at 4° C. for 15 minutes to remove the supernatant. 200 μl of RNAzol solution was added to the residue followed by addition of 50 μl of chloroform. The cells were lysed by careful pippeting, and then centrifuged with 15,000 rpm at 4° C. for 15 minutes to recover a total RNA, which was then precipitated at 4° C. for 15 minutes by adding the same volume of isopropanol, washed once with 75% ethanol and then dried. The cell lysate was dissolved by adding 20 μl of […] and then warming the mixture at 60° C. for 30 minutes. Then, reverse transcriptase reaction was conducted at 50° C. for 20 minutes by adding 5 μl of 10 mM dNTP, 6 μl of 25 mM MgCl2, 5 μl of 10× RNA PCR buffer, 1 μl of RNase inhibitor, 1 μl of AMV-optimized Taq, 1 μl of AMV reverse transcriptase XL, 1 μl of 50 pM specific primer (sense/antisense), and 26 μl of RNase free dH2O to 5 μl of total RNA, and then stopped at 94° C. for 2 minutes to conduct DNA synthetic reaction (polymerase chain reaction: PCR). The PCR was conducted under conditions comprising 94° C. 1 minute, 55° C. 45 seconds, 70° C. 60 seconds for 35 cycles, and then, finally the elongation reaction was conducted at 70° C. for 5 minutes to complete the reaction. The resulting PCR product was eluted on 1% agarose gel and observed whether the bands are present near 395 bp and 278 bp on the basis of a size marker.

[2] = Effect on arthritis of the compounds isolated from Harpagophytum procumbens DC (summary statement); conditions: summary in background text
Raw 264.7 cell lines [3] = experiment: Induction of apoptosis of macrophages; assay type: cell-based; conditions: Raw 264.7 cells; 10 μg/ml, 24 hours
Procedure: (§1) In order to determine whether the compound identified as the effective component of the pharmaceutical composition separated according to the present invention can induce the apoptosis of Raw 264.7 cell lines as macrophage involved in inflammatory reaction and synovial cells, the cells were distributed on 5% DMEM medium supplemented with penicillin/streptomycin in a 6-well culture dish at the concentration of 10^4 cells and then incubated at 37° C. for 24 hours while adding the extractions as above at the concentration of 10 μg/ml to observe the reaction. Apoptosis was examined by taking a photograph of apoptosis-induced cells under a polarizing microscope of 200 magnifications.

synovial cells = experiment: Induction of apoptosis of synovial cell lines; assay type: cell-based, human; conditions: 10 μg/ml, 24 hours
Procedure: The synovial cells separated from outpatients suffering from rheumatoid arthritis were distributed on 5% DMEM medium supplemented with penicillin/streptomycin in a 6-well culture dish at the concentration of 10^4 cells and then incubated for 24 hours at 37° C. to observe the surviving cells. In order to determine the presence or absence of cells and the proliferating state of cells, apoptosis-induced cells were examined by taking their photographs under a phase-contrast microscope of 200 magnifications.
as §1

[4] = system: edema-induced albino rats; experiment: Inhibitory effect on edema of arthritis (Zymosan-A / Freund's adjuvant induced paw edema); assay type: in vivo; conditions: for inhibitory effect on edema: in words, after 70 days
Procedure: In order to observe the inhibitory effect on edema of the pharmaceutical composition of the present invention, 6 albino rats weighing 200 g were used per test group to induce edema by injecting the mixture of 0.5 ml of Zymosan-A (20 mg/ml/kg) and 0.5 ml of Freund's adjuvant into ST36 position of left paw and then observed for the progress of edema for 70 days by taking a photograph before and after induction of edema. The water extract and organic solvent fractions of the pharmaceutical composition of the present invention were respectively constituted in the concentration of 0.6 mg/ml and then orally administered for 14 days to albino rats in an amount of 1 ml per kg of body weight once a day to determine the inhibitory effect on edema. As the test sample, the organic solvent fractions of the pharmaceutical composition including ABE, ABB, ABW, CBE, CBB, CBW, LNE, LNB, LNW, CRB, CRW, SSH and SSW were respectively used. As the result of this test, it was observed that edema was started to induce on day 4 and reached the peak point after about 45 days. The period for this test was established as 70 days after edema induction to observe the inhibitory effect on edema of the extracts of the present invention. As the result, the edema size was measured using a precision gauge.

Raw 264.7 cell lines [5] = experiment: Effect on cell cycle of macrophage cells (flow cytometry); assay type: cell-based; conditions: 20 μg/ml, LPS 50 ng/ml, propidium iodide flow cytometry
Procedure: (§2) Two kinds of cells were incubated as in Experiment 6 and then washed with PBS (phosphate-buffered saline). LPS was distributed on the respective dishes at the concentration of 50 ng/ml to stimulate the cells. Then, the extract according to the present invention was added over 2 hours so as to make the final concentration of 20 μg/ml. The supernatant was removed, washed with PBS and then treated with trypsin. The cells were harvested, introduced into Eppendorf tube and then centrifuged at 1,000 rpm for 5 minutes to remove the supernatant. The residue was fixed with addition of 1 ml of 100% ethanol. At this time, the mixture of 5 μg/ml propidium iodide and RNAse was separately prepared. The fixed cells were centrifuged to remove the supernatant and then washed once with PBS. Simultaneously, the staining agent as previously prepared above was added to the fixed cells and then warmed in an incubator at 37° C. for 30 minutes. The cells stained with propidium iodide was sealed with foil, stored at 4° C. and then subjected to a flow cytometry analysis using FACscan (Becton Dickinson, Calif.) as the analyzing apparatus.

[6] = system: CAM formation induced by synovial cells; experiment: Angiogenesis of synovial cells in chorioallantoic membrane (CAM) of fertilized egg; conditions: 10 μg/ml on CAM; compared to control group
Procedure: In order to determine the effect of the organic solvent fractions obtained in Experiment 1 on the angionenesis of synovial cells using the cells separated in Experiment 2, synovial cells were injected into fertilized egg and then incubated in an incubator at 37° C. for 3 days to observe the formation of chorioallantoic membrane (CAM). In the present state, the fractions separated according to the above method were respectively distributed on CAM at the concentration of 10 μg/ml to observe the degree of CAM decrease.

iNOS = experiment: Inhibition of iNOS expression at the level of transcription through RT-PCR; assay type: cell-based; conditions: FIG. 11a; 50 μg/ml; LPS 50 ng/ml
Procedure: In order to identify the ingredient having an inhibitory activity against COX-II and inducible nitric oxide synthetase (iNOS) as the causal factors of rheumatoid arthritis in the extract used as the effective component of the pharmaceutical composition according to the present invention as in Experiment 6 above, the cells were distributed in T75 flask at the concentration of 10^5 cells, incubated for 7 days and then stimulated for 2 hours by introducing LPS in the flask at the concentration of 50 ng/ml. Then, the extract of the present invention was added so as to make the final concentration of 50 μg/ml. The cells were harvested into a 1.5 ml Eppendorf tube and centrifuged with 15,000 rpm at 4° C. for 15 minutes to remove the supernatant. 200 μl of RNAzol solution was added to the residue followed by addition of 50 μl of chloroform. The cells were lysed by careful pippeting, and then centrifuged with 15,000 rpm at 4° C. for 15 minutes to recover a total RNA, which was then precipitated at 4° C. for 15 minutes by adding the same volume of isopropanol, washed once with 75% ethanol and then dried. The cell lysate was dissolved by adding 20 μl of […] and then warming the mixture at 60° C. for 30 minutes. […]

COX-II [7] = experiment: Expression of COX-II protein by immunocytochemical analysis in synovial cells; assay type: cell-based; conditions: 10 μg/ml
Procedure: In order to determine whether the compound identified as the effective component of the pharmaceutical composition separated by the present invention induces an inhibitory effect on COX-II of synovial cells in joint portion, 10^4 synovial cells were distributed on 5% DMEM medium supplemented with penicillin/streptomycin in 6-well culture dish containing a slimb over glass, incubated for 24 hours at 37° C., during which the extract of the present invention was added to the concentration of 10 μg/ml to observe the reaction. The waste was removed and then, the cells were washed once with PBS, fixed with methanol and then washed with PBS. The cells were labeled with the primary antibody COX-II and then allowed to stand at 4° C. for about one hour. Then, the cells were labeled with a fluorescence (fluorescein isothiocyanate: FITC) as the secondary antibody, allowed to stand for about one hour while masking from light with foil and then observed under a fluorescence microscope.

[8] = system: NO formation in RAW 264.7 cell lines; experiment: NO formation in macrophage cells stimulated by lipid polysaccharide; assay type: cell-based; conditions: 10 μg/ml; LPS 50 ng/well; Greiss reagent
Procedure: In order to identify whether the extracts obtained according to the present invention can inhibit the synthesis of nitric oxide (NO) as the potent inducer of inflammation in blood due to edema as above, macrophage RAW 264.7 cell lines were distributed in a 96-well microplate at the concentration of 10^3 cells per well and then incubated for 12 hours. Then, lipid polysaccharide was added to the plate at the concentration of 50 ng/well to stimulate the cells for 2 hours. The respective organic solvent fractions were added to the plate to the final concentration of 10 μg/ml followed by addition of 50 μl of Greiss reagent solution, and then allowed to react together at room temperature. Then, the absorbance of the plate was measured at 540 nm of ELISA (enzyme-linked immunosorbent assay) reader. For comparative analysis, 0.1, 1, 10, 20, 50, 100, 150 μM sodium nitrite as the standard solution were developed with sodium nitroprusside dihydrate (SNP).

[9] = system: nogo-A expressed U-373 MG cell line; experiment: Neurite regeneration in nogo-A expressing glioblastoma cells (vertebral neuroparalysis); assay type: cell-based; conditions: nogo-A transfected U-373 cells; phase-contrast microscope
Text: Simultaneously, it was also observed whether neurites can be regenerated by treatment with neuronal growth factor (NGF) or whether the fractions of the present invention can provide the same effect, by taking a photograph with a phase-contrast microscope of 200 magnifications.

[10] = system: edema-induced albino rats; experiment: Joint rupture in edema-inhibited albino rats by X-ray analysis; assay type: in vivo; conditions: oral 14 days, 75 μg/ml; about 70 days
Procedure: The respective water extract and organic solvent fractions were orally administered for 14 days at the concentration of 75 μg/ml to investigate their inhibitory effect on edema as in Experiment 1. The test albino rats were anesthetized to take X-ray photograph.

synovial cell lines = experiment: Effect on cell cycle of synovial cell lines (flow cytometry); assay type: cell-based, human; conditions: 20 μg/ml, LPS 50 ng/ml, propidium iodide flow cytometry
Procedure: as §2

Compound | effect on COX-II expression (RT-PCR) (COX-II [1]; FIG. 11c, respective fractions) | effect on arthritis [2] | induction of apoptosis (Raw 264.7 cell lines [3]) | induction of apoptosis (synovial cells) | edema size after treatment ([4]; Table 3 (best fractions), measured after 70 days, unit not given, in mm) | edema size before treatment ([4]; Table 3 (best fractions), unit not given, in mm) | inhibitory effect on edema [4] | effect on cell cycle (Raw 264.7 cell lines [5]) | induction of CAM formation (angiogenesis by synovial cells) [6] | effect on COX-II expression (RT-PCR) (COX-II [1]; FIG. 11a, 50 μg/ml, LPS 50 ng/ml) | effect on iNOS expression (RT-PCR band near 278 bp) (iNOS) | COX-II protein expression (immunofluorescence, FITC) (COX-II [7]) | inhibition of NO formation [8] | neurite pattern (regeneration of neurites) [9] | osteogenesis (X-ray) [10] | rupture of cartilage in arthritic portion (X-ray) [10] | effect on cell cycle (synovial cell lines)
C[C@]1(OC(=O)/C=C/c2ccccc2)C[C@@H](O)[C@]2(O)C=CO[C@@H](O[C@@H]3O[C@H](CO)[C@@H](O)[C@H](O)[C@H]3O)[C@@H]21 [LNE-1, harpagoside] | strongly inhibit the protein expression | moderate pharmacological effect | more strongly inducing the apoptosis | more strongly inducing the apoptosis | 5.1 ± 2 | 15.1 ± 2 | potent inhibitory effect on edema | – | – | – | – | – | – | – | – | – | –
OC[C@H]1O[C@H](OC[C@H]2O[C@H](OC[C@H]3O[C@H](O[C@]4(CO)O[C@H](CO)[C@@H](O)[C@@H]4O)[C@H](O)[C@@H](O)[C@@H]3O)[C@H](O)[C@@H](O)[C@H]2O)[C@H](O)[C@@H](O)[C@H]1O [LNE-2, starchyose] | – | – | – | – | – | – | – | induced G0/G1 arrest | – | – | – | – | – | – | – | – | –
C[C@]1(O)C[C@@H](O)[C@]2(O)C=CO[C@@H](O[C@H]3O[C@H](CO)[C@@H](O)[C@H](O)[C@H]3O)[C@@H]21 [LNE-3, harpagide] | strongly inhibit the protein expression | most effective | more strongly inducing the apoptosis | more strongly inducing the apoptosis | – | – | potent inhibitory effect on edema; also recorded: most significant | – | more strongly inhibited the induction of CAM formation | inhibitory effect at the level of transcription | have an effect on the protein expression | tendency to greatly decrease the protein expression | stronger inhibitory effect on NO formation | neurites were lengthened | effect of stimulating the osteogenesis | inhibits the rupture of cartilage in arthritic portion | induced the apoptosis
